The results in this text go back to patent publication US7244614B2, “Fusion proteins and assays for molecular binding” (Cellomics, Inc., priority 2001, dated 2007).

Holding throughout (type): cell-based
Assay [1] relates to MAPK. As to the kind of experiment: MAPK binding fusion protein (first variant, mutated n-myc NLS) redistribution in transfected HeLa cells, ArrayScan II. Conditions: for inhibition of the change in distribution of the fusion protein: 2 hours pretreatment with 10 uM inhibitor, then PMA; for change in localization of the fusion protein to the cytoplasm upon activation: serum starved 24 h, PMA 1.5 nM or sorbitol 200 mM, 1 hour. From the text: In this example, a fusion protein for detecting the availability for specific binding of MAPK, the protein of interest, is based on the distribution of the fusion protein between the cytoplasm and nucleus. It is constructed such that the detection domain is a GFP, the first localization sequence is a mutated NLS from n-myc, the second localization sequence is an NES from MAPKAP2, and the binding domain is the MAPK binding domain from RSK-1. The NLS and MAPK binding domain are separated by 2 amino acids. Operationally, the binding of MAPK to the binding domain blocks the localization of this fusion protein into the nucleus. […] Contacting the cell with a compound that activates MAPK, such as PMA or serum, will activate MAPK by inducing a dissociation of MAPK from MEK1, thus making MAPK available for binding to the RSK-1 binding domain in the fusion protein, and will shift the distribution of the fusion protein from the nucleus to the cytoplasm.
As shown below, this fusion protein was constructed using a GFP, a mutated nuclear localization signal from n-myc, based on human n-myc (Genbank accession number Y00664), the sequence from Proline 315 to Alanine 361 of MAPKAP2 (Genbank accession number X76850), which includes a nuclear export signal (between D^328 to E^351, SEQ ID NO:317), and the MAPK binding domain from RSK1 spanning from S^718 to T^733 (Genbank accession number L07597).
(§1) Protocol: HeLa cells were transiently transfected with the fusion protein. Cells were serum starved for 24 hours prior to treatment. Cells were then exposed to PMA (1.5 nM) or sorbitol (200 mM) for 1 hour. For inhibitor treatment, cells were pretreated for 2 hours with 10 uM inhibitor, and then treated with PMA, in parallel with non-inhibitor-treated cells. Cells were then treated with 3.7% formaldehyde & Hoechst 33342 for 20 minutes to fix and stain the nuclei, and then washed. Data was collected on ArrayScan II® (Cellomics, Inc. Pittsburgh, Pa.). […] Most, if not all, of the fusion protein was affected. The change in distribution was inhibitable by pretreatment of 10 uM PD98059, a specific inhibitor of MAPK activation, but not by SB203580, a specific inhibitor of p38 MAPK activation. Second Variant Protocol: HeLa cells were transiently transfected with the fusion protein. Cells were serum starved for 24 hours prior to treatment. Cells were exposed to serum (20%) or PMA (200 nM) for 2 hours. Cells were then treated with 3.7% formaldehyde & Hoechst 33342 for 20 minutes to fix and stain the nuclei, and then washed. Data was collected on ArrayScan II® (Cellomics, Inc. Pittsburgh, Pa.).

Assay [2] deals with catalytic domain of cAMP-dependent protein kinase (cPKA). In words: cAMP-dependent protein kinase interaction fusion protein redistribution (nucleus/cytoplasm) in transfected HeLa cells, ArrayScan II. Conditions: serum starved 24 h, forskolin 2 h or PMA 1 h. From the text: In this example, a fusion protein for detecting the availability for specific binding of the catalytic domain of cAMP-dependent protein kinase (cPKA), the protein of interest, is based on the distribution of the fusion protein between the cytoplasm and nucleus. It is constructed such that the detection domain is a GFP, the first localization domain is the NLS from SV40 large T-antigen, the second localization domain is the NES from MAPKAP2, and the binding domain is from CREB. The NLS and the binding domain are separated by 2 amino acids. The fusion protein is introduced into cells via DNA transfection or retrovirus infection. The catalytic domain cPKA binds to the regulatory domain of PKA (rPKA) in the absence of cAMP. With an increase in the concentration of cAMP, cPKA dissociates from rPKA, enabling cPKA to bind to the fusion protein. Operationally, the binding of cPKA to the binding domain blocks the localization of this fusion protein into the nucleus. […] The ratio of these intensities can be readily measured. This fusion protein can detect cPKA binding in either the nucleus or cytoplasm. Contacting the cell with a compound that causes a separation of cPKA from rPKA, such as forskolin, via an increase cAMP, will shift the distribution of the fusion protein from the nucleus to the cytoplasm. […]

In assay [3] the test system is MAPK. In words: MAPK binding fusion protein (second variant, SV40 NLS) redistribution in transfected HeLa cells, ArrayScan II. Conditions: serum starved 24 h, serum 20% or PMA 200 nM, 2 hours. The method, then: A variant of this MAPK binding fusion protein was also prepared. This fusion protein was constructed using a GFP, a nuclear localization signal from the SV 40 large T antigen (SEQ ID NO:145, Genbank accession number J02400), specifically P^126 to V^132, the sequence from Glutamic Acid 327 to Isoleucine 353 of MAPKAP2 (Genbank accession number X76850), which includes a nuclear export signal (between D^328 to E^351, SEQ ID NO:317), and the MAPK binding domain from RSK1, spanning from S^718 to T^733 (Genbank accession number L07597).
as §1, with “Second Variant Protocol: HeLa cells were transiently transfected with the fusion protein. Cells were serum starved for 24 hours prior to treatment. Cells were exposed to serum (20%) or PMA (200 nM) for 2 hours. Cells were then treated with 3.7% formaldehyde & Hoechst 33342 for 20 minutes to fix and stain the nuclei, and then washed. Data was collected on ArrayScan II® (Cellomics, Inc. Pittsburgh, Pa.).” left out

Assay [4] has as its system c-Jun N-terminal kinase (JNK). In words: c-Jun N-terminal protein kinase fusion protein redistribution in transfected HeLa cells, ArrayScan II. Conditions: for change in localization of the fusion protein to the cytoplasm upon activation: serum starved 24 h, anisomycin 500 nM, sorbitol 300 mM, TNF 100 ng/ml or staurosporine 1 uM, 1 hour. An excerpt:
It is constructed such that the detection domain is a GFP, the first localization domain is a modified SV40 T antigen NLS, the second localization domain is an NES from MAPKAP2, and the binding domain is the JNK binding domain from c-jun. […] This example illustrates the detection and monitoring of a binding event induced to occur within the cell.
As shown below, this fusion protein was constructed using GFP, a modified nuclear localization signal from SV40 T antigen, the sequence from Proline 315 to Serine 362 of MAPKAP2 (Genbank accession number X76850), which includes a nuclear export signal (between D^328 to E^351, SEQ ID NO:317), and the sequence from P^30 to L^60 of c-Jun,(accession number J04111), which serves as the JNK binding domain.
Protocol: HeLa cells were transiently transfected with the fusion protein. Cells were serum starved for 24 hours prior to treatment. Cells were exposed to test compounds known to induce cell stress, including anisomycin (500 nM), sorbitol (300 mM), TNF (tumor necrosis factor, 100 ng/ml), or staurosporine (1 uM), for 1 hour. For inhibitor treatment, cells were pretreated for 2 hours with 10 uM inhibitor then treated with anisomycin, in parallel with non-inhibitor-treated cells. Cells were then treated with 3.7% formaldehyde & Hoechst 33342 for 20 minutes to fix and stain the nuclei, and then washed. Data was collected on ArrayScan II® (Cellomics, Inc. Pittsburgh, Pa.).

For the molecule `COc1cccc(-c2cc(=O)c3ccccc3o2)c1N` [PD98059], the “inhibition of the change in distribution of the fusion protein” value in the assay on MAPK [1] is “inhibitable”.

Regarding `CCCCCCCCCCCCCC(=O)O[C@@H]1[C@@H](C)[C@@]2(O)[C@@H](C=C(CO)C[C@]3(O)C(=O)C(C)=C[C@@H]23)[C@@H]2C(C)(C)[C@]12OC(C)=O` [PMA, Phorbol-12-Myristate-13-Acetate], the “change in localization of the fusion protein to the cytoplasm upon activation” value (“change in localization” for short) (in assay [2]; in the assay with MAPK [1]; in the assay on MAPK [3]) was “led to a change in localization of the fusion protein to the cytoplasm” throughout.

For the molecule `C[S+]([O-])c1ccc(-c2nc(-c3ccncc3)c(-c3ccc(F)cc3)[nH]2)cc1` (stereo not drawn) [SB203580], the “inhibition of the change in distribution of the fusion protein” value in the assay with MAPK [1] is “not”. In assay [4] (2 hours pretreatment with 10 uM inhibitor, then anisomycin), the “effect of inhibitor pretreatment on the change in distribution of the fusion protein” value was “not affected”.

Regarding `COc1ccc(C[C@H]2NC[C@H](O)[C@H]2OC(C)=O)cc1` [anisomycin], the “change in localization” value in assay [4] is given as “led to a change in localization of the fusion protein to the cytoplasm”.

`OC[C@@H](O)[C@@H](O)[C@H](O)[C@@H](O)CO` [sorbitol]: the “change in localization” value with MAPK [1] is “did not induce a change in the localization of the fusion protein”.

As for `CN[C@@H]1C[C@H]2O[C@@](C)([C@@H]1OC)n1c3ccccc3c3c4c(c5c6ccccc6n2c5c31)C(=O)NC4` [staurosporine], the “change in localization” value in assay [4] was “led to a change in localization of the fusion protein to the cytoplasm”.
